Assay results published in ChEMBL document CHEMBL1806450, “Synthesis of an aryloxy oxo pyrimidinone library that displays ALK-selective inhibition” (Bioorg Med Chem Lett, 2011).

Assays:
[1] = biological target: ALK tyrosine kinase receptor (Homo sapiens, UniProt Q9UM73)
Description: Inhibition of 6xHis-tagged NPM-ALK using biotinylated-poly(GT) peptide as substrate after 60 mins

Insulin receptor = Insulin receptor (Homo sapiens, UniProt P06213)
Description: Inhibition of recombinant IRK using biotinylated-poly(GT) peptide as substrate after 60 mins

[2] = biological target: Hepatocyte growth factor receptor (Homo sapiens, UniProt P08581)
Hepatocyte growth factor receptor, sequence (P08581 whole entry): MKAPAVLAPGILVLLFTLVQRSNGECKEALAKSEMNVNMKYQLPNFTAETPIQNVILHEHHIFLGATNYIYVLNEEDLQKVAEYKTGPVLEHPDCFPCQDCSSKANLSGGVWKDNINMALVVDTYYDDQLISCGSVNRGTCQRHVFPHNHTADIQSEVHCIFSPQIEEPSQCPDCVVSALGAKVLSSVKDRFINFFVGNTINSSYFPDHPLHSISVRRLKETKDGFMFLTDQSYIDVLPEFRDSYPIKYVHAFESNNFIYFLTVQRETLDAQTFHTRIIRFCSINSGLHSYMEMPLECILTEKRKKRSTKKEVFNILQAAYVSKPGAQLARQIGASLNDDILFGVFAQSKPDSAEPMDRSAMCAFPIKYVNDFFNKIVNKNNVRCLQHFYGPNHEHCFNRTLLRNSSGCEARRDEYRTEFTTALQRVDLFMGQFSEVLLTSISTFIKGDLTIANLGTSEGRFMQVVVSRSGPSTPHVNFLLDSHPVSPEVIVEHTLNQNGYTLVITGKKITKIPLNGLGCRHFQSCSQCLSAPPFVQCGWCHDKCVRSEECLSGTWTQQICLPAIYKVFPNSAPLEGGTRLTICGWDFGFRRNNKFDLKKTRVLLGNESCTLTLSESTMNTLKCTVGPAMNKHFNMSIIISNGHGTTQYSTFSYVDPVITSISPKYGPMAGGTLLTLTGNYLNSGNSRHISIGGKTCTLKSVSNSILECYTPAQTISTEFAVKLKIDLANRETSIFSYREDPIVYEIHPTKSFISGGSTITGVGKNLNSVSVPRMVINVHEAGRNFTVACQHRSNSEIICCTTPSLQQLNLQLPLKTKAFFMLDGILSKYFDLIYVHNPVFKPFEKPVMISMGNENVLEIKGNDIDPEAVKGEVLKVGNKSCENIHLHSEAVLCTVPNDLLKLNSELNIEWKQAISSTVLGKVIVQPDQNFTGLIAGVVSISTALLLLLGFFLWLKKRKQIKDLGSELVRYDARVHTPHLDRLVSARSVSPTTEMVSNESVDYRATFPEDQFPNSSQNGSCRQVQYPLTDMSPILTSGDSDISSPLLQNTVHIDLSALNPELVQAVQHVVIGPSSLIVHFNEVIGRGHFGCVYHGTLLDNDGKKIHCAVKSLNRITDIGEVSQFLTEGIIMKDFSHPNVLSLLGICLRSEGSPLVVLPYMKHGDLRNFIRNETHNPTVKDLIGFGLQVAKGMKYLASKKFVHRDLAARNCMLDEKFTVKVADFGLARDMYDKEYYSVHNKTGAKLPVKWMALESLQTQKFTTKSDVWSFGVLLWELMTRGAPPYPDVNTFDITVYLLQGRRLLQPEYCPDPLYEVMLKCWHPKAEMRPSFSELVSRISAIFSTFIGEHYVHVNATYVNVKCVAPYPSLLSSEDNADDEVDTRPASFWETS
Description: Inhibition of recombinant MET using biotinylated-poly(GT) peptide as substrate after 60 mins

Insulin receptor, sequence (P06213 28-758 limits assumed): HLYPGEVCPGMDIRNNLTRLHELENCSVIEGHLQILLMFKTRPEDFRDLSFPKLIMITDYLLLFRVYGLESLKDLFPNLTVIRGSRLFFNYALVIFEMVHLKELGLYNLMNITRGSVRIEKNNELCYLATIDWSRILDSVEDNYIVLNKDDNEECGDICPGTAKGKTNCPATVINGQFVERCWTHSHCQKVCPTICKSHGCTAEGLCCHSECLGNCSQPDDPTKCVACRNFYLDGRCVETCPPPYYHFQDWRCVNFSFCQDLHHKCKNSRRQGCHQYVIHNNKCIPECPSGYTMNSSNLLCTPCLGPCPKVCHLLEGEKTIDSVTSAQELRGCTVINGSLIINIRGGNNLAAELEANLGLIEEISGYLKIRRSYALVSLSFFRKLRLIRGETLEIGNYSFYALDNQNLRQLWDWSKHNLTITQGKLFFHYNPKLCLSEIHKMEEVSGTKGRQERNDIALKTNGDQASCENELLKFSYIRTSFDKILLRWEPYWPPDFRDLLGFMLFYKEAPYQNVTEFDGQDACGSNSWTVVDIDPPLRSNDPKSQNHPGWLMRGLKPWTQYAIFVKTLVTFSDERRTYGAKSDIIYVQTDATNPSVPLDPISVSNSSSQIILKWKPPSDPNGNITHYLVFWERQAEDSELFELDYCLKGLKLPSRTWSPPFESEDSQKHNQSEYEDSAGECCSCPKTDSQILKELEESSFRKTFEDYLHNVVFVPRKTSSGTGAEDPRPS
Insulin receptor, sequence (P06213 763-1382 limits assumed): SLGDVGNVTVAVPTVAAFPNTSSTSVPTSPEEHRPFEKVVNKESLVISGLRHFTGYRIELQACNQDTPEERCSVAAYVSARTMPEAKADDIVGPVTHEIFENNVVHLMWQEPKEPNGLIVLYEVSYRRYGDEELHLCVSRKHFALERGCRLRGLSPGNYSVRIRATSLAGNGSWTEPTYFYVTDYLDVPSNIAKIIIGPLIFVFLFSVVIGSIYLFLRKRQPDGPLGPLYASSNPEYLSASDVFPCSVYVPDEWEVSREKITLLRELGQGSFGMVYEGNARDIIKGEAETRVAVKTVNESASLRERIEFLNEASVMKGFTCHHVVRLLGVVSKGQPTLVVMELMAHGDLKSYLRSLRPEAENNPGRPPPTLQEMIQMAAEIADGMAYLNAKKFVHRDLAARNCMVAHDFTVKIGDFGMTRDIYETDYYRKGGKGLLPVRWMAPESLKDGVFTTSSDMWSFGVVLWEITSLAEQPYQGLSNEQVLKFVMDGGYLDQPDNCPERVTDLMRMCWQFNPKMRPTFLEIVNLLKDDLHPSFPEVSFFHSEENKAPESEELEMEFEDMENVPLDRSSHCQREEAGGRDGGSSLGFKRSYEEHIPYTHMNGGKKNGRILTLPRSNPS
ALK tyrosine kinase receptor, sequence (Q9UM73 whole entry): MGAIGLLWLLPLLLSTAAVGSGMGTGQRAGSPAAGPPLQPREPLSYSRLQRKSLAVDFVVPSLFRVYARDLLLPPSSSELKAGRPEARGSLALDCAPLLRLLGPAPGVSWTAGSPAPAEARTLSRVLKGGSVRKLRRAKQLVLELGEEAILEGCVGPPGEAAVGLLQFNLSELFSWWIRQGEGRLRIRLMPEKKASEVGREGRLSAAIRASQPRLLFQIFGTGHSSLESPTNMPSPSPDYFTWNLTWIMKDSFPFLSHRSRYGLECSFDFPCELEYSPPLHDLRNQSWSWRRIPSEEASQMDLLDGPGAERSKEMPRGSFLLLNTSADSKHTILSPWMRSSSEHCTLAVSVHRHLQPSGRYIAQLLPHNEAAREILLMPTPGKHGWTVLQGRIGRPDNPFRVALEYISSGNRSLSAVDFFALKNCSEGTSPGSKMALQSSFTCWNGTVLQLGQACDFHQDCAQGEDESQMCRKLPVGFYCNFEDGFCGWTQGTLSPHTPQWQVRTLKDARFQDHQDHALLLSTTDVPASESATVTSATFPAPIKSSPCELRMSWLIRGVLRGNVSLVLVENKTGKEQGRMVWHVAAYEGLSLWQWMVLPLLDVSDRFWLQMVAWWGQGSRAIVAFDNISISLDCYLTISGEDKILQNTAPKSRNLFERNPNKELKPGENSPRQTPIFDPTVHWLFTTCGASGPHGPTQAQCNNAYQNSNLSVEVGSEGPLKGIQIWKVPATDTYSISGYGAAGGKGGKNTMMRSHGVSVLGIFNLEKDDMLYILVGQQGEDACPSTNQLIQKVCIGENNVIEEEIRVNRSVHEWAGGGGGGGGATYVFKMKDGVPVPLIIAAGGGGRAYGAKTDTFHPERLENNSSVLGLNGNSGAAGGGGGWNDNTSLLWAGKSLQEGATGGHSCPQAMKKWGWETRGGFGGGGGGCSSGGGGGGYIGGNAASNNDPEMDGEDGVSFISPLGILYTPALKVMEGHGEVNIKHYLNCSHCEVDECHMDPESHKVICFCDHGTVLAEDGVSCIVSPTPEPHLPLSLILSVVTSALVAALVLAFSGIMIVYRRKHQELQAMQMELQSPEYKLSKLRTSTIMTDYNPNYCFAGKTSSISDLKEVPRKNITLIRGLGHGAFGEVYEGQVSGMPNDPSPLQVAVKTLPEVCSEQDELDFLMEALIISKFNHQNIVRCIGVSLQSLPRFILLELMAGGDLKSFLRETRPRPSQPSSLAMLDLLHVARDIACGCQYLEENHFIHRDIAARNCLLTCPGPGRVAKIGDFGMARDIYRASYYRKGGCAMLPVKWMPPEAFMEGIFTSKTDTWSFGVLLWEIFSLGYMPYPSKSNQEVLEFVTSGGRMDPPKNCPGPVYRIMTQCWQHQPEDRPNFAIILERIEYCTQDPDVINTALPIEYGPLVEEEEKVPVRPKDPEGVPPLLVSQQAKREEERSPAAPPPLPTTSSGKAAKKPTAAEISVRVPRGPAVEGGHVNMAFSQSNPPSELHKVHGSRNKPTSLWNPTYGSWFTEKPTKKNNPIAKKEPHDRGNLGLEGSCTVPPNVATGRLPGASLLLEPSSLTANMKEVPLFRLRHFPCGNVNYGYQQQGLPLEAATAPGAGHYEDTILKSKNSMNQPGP

CC(=O)/C=C/c1c(Oc2ccc(NC(C)=O)cc2)nc[nH]c1=O
IC50 [1]: 6.64 µM | IC50 (Insulin receptor): > 40 µM | IC50 [2]: > 40 µM

COC(=O)c1cccc(Oc2nc[nH]c(=O)c2-c2ccncc2)c1
IC50 [1]: > 40 µM | IC50 (Insulin receptor): > 40 µM | IC50 [2]: > 40 µM

COc1cccc(Oc2nc[nH]c(=O)c2/C=C/C(C)=O)c1
IC50 [1]: > 40 µM | IC50 (Insulin receptor): > 40 µM | IC50 [2]: > 40 µM

CC(=O)/C=C/c1c(Oc2c(Cl)cccc2Cl)nc[nH]c1=O
IC50 [1]: > 40 µM | IC50 (Insulin receptor): > 40 µM | IC50 [2]: > 40 µM

COC(=O)c1cccc(Oc2nc[nH]c(=O)c2/C=C/C(C)=O)c1
IC50 [1]: 3.03 µM | IC50 (Insulin receptor): > 40 µM | IC50 [2]: 4.01 µM

CC(=O)/C=C/c1c(Oc2ccc(F)cc2)nc[nH]c1=O
IC50 [1]: > 40 µM | IC50 (Insulin receptor): > 40 µM | IC50 [2]: > 40 µM

COC(=O)c1cc(OC)ccc1Oc1nc[nH]c(=O)c1/C=C/C(C)=O
IC50 [1]: > 40 µM | IC50 (Insulin receptor): > 40 µM | IC50 [2]: > 40 µM

CC(=O)/C=C/c1c(Oc2ccc(C#N)cc2)nc[nH]c1=O
IC50 [1]: 6.91 µM | IC50 (Insulin receptor): > 40 µM | IC50 [2]: > 40 µM

CCOC(=O)c1ccc(Oc2nc[nH]c(=O)c2/C=C/C(C)=O)cc1
IC50 [1]: > 40 µM | IC50 (Insulin receptor): > 40 µM | IC50 [2]: > 40 µM

COC(=O)c1cccc(Oc2nc[nH]c(=O)c2C2CC(C)=NN2C(C)=O)c1 (stereo not drawn)
IC50 [1]: 9 µM | IC50 (Insulin receptor): > 40 µM | IC50 [2]: > 40 µM

CC(=O)/C=C/c1c(Oc2ccc(O)cc2)nc[nH]c1=O
IC50 [1]: 7.57 µM | IC50 (Insulin receptor): > 40 µM | IC50 [2]: > 40 µM

COC(=O)c1cccc(Oc2nc[nH]c(=O)c2C2CC(C)=NN2)c1 (stereo not drawn)
IC50 [1]: > 40 µM | IC50 (Insulin receptor): > 40 µM | IC50 [2]: > 40 µM

CCOC(=O)/C=C/c1c(Oc2ccccc2Cl)nc[nH]c1=O
IC50 [1]: > 40 µM | IC50 (Insulin receptor): > 40 µM | IC50 [2]: > 40 µM

CCOC(=O)/C=C/c1c(Oc2ccc(OC)cc2C(=O)OC)nc[nH]c1=O
IC50 [1]: > 40 µM | IC50 (Insulin receptor): > 40 µM | IC50 [2]: > 40 µM

CC(=O)/C=C/c1c(Oc2ccc(C(C)=O)c(F)c2)nc[nH]c1=O
IC50 [1]: > 40 µM | IC50 (Insulin receptor): > 40 µM | IC50 [2]: > 40 µM

CCOC(=O)/C=C/c1c(Oc2c(Cl)cccc2Cl)nc[nH]c1=O
IC50 [1]: > 40 µM | IC50 (Insulin receptor): > 40 µM | IC50 [2]: > 40 µM

CC(=O)/C=C/c1c(Oc2ccccc2Cl)nc[nH]c1=O
IC50 [1]: > 40 µM | IC50 (Insulin receptor): > 40 µM | IC50 [2]: > 40 µM

COC(=O)c1cccc(Oc2nc[nH]c(=O)c2-c2cccc(N)c2)c1
IC50 [1]: > 40 µM | IC50 (Insulin receptor): > 40 µM | IC50 [2]: > 40 µM

CCOC(=O)/C=C/c1c(Oc2cccc(C(=O)OC)c2)nc[nH]c1=O
IC50 [1]: > 40 µM | IC50 (Insulin receptor): > 40 µM | IC50 [2]: > 40 µM

CC(=O)/C=C/c1c(Oc2ccc(C)cc2C(C)=O)nc[nH]c1=O
IC50 [1]: > 40 µM | IC50 (Insulin receptor): > 40 µM | IC50 [2]: > 40 µM

COC(=O)c1cccc(Oc2nc[nH]c(=O)c2-c2cccc(OC)c2)c1
IC50 [1]: > 40 µM | IC50 (Insulin receptor): > 40 µM | IC50 [2]: > 40 µM

CCOC(=O)/C=C/c1c(Oc2ccc(C(C)(C)C)cc2)nc[nH]c1=O
IC50 [1]: > 40 µM | IC50 (Insulin receptor): > 40 µM | IC50 [2]: > 40 µM

CC(=O)/C=C/c1c(Oc2ccc(C)cc2)nc[nH]c1=O
IC50 [1]: > 40 µM | IC50 (Insulin receptor): > 40 µM | IC50 [2]: > 40 µM

CCCCCCOC(=O)c1ccccc1Oc1nc[nH]c(=O)c1/C=C/C(C)=O
IC50 [1]: > 40 µM | IC50 (Insulin receptor): > 40 µM | IC50 [2]: > 40 µM

CC(=O)/C=C/c1c(Oc2cccc(C#N)c2)nc[nH]c1=O
IC50 [1]: > 40 µM | IC50 (Insulin receptor): > 40 µM | IC50 [2]: > 40 µM

COC(=O)c1cccc(Oc2nc[nH]c(=O)c2-c2cccc(C)c2)c1
IC50 [1]: > 40 µM | IC50 (Insulin receptor): > 40 µM | IC50 [2]: > 40 µM

CCOC(=O)c1ccccc1Oc1nc[nH]c(=O)c1/C=C/C(C)=O
IC50 [1]: 7.54 µM | IC50 (Insulin receptor): > 40 µM | IC50 [2]: > 40 µM

CCOC(=O)/C=C/c1c(Oc2c(OC)cccc2OC)nc[nH]c1=O
IC50 [1]: > 40 µM | IC50 (Insulin receptor): > 40 µM | IC50 [2]: > 40 µM

CC(=O)/C=C/c1c(Oc2ccc(C(C)(C)C)cc2)nc[nH]c1=O
IC50 [1]: > 40 µM | IC50 (Insulin receptor): > 40 µM | IC50 [2]: > 40 µM

CC(=O)/C=C/c1c(Oc2cccc(C(C)=O)c2)nc[nH]c1=O
IC50 [1]: 6.25 µM | IC50 (Insulin receptor): > 40 µM | IC50 [2]: > 40 µM

CCOC(=O)/C=C/c1c(Oc2ccc(C)cc2)nc[nH]c1=O
IC50 [1]: > 40 µM | IC50 (Insulin receptor): > 40 µM | IC50 [2]: > 40 µM

COc1cccc(OC)c1Oc1nc[nH]c(=O)c1/C=C/C(C)=O
IC50 [1]: > 40 µM | IC50 (Insulin receptor): > 40 µM | IC50 [2]: > 40 µM

CC(=O)/C=C/c1c(Oc2ccccc2C(C)=O)nc[nH]c1=O
IC50 [1]: > 40 µM | IC50 (Insulin receptor): > 40 µM | IC50 [2]: > 40 µM

CCOC(=O)/C=C/c1c(Oc2cccc(C#N)c2)nc[nH]c1=O
IC50 [1]: > 40 µM | IC50 (Insulin receptor): > 40 µM | IC50 [2]: > 40 µM

COC(=O)c1ccc(OC)cc1Oc1nc[nH]c(=O)c1/C=C/C(C)=O
IC50 [1]: 10.2 µM | IC50 (Insulin receptor): > 40 µM | IC50 [2]: > 40 µM

COc1cc(Cl)ccc1Oc1nc[nH]c(=O)c1/C=C/C(C)=O
IC50 [1]: > 40 µM | IC50 (Insulin receptor): > 40 µM | IC50 [2]: > 40 µM

COC(=O)c1cc(Cl)ccc1Oc1nc[nH]c(=O)c1/C=C/C(C)=O
IC50 [1]: > 40 µM | IC50 (Insulin receptor): > 40 µM | IC50 [2]: > 40 µM

COC(=O)c1cccc(Oc2nc[nH]c(=O)c2CCC(C)=O)c1
IC50 [1]: > 40 µM | IC50 (Insulin receptor): > 40 µM | IC50 [2]: > 40 µM

COC(=O)c1cccc(Oc2nc[nH]c(=O)c2-c2ccccc2)c1
IC50 [1]: > 40 µM | IC50 (Insulin receptor): > 40 µM | IC50 [2]: > 40 µM

CC(=O)/C=C/c1c(Oc2c(C)cc(C(C)=O)cc2C)nc[nH]c1=O
IC50 [1]: > 40 µM | IC50 (Insulin receptor): > 40 µM | IC50 [2]: > 40 µM

COC(=O)c1cccc(Oc2nc[nH]c(=O)c2C2CC(C)=NN2C)c1 (stereo not drawn)
IC50 [1]: > 40 µM | IC50 (Insulin receptor): > 40 µM | IC50 [2]: > 40 µM

CCOC(=O)/C=C/c1c(Oc2cccc(OC)c2)nc[nH]c1=O
IC50 [1]: > 40 µM | IC50 (Insulin receptor): > 40 µM | IC50 [2]: > 40 µM

CC(=O)/C=C/c1c(Oc2cc(C(F)(F)F)ccc2Cl)nc[nH]c1=O
IC50 [1]: 9.87 µM | IC50 (Insulin receptor): > 40 µM | IC50 [2]: > 40 µM

CCOC(=O)/C=C/c1c(Oc2ccc(F)cc2)nc[nH]c1=O
IC50 [1]: > 40 µM | IC50 (Insulin receptor): > 40 µM | IC50 [2]: > 40 µM

COc1cc(Oc2nc[nH]c(=O)c2/C=C/C(C)=O)c(C(C)=O)cc1OC
IC50 [1]: 7.54 µM | IC50 (Insulin receptor): > 40 µM | IC50 [2]: > 40 µM

CCOC(=O)/C=C/c1c(Oc2ccc(Cl)cc2OC)nc[nH]c1=O
IC50 [1]: > 40 µM | IC50 (Insulin receptor): > 40 µM | IC50 [2]: > 40 µM
